From ChEMBL document CHEMBL1201862, “PubChem BioAssay data set” (2004)
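Compound exposure: 48 hours, 5 concentrations, 96-well plates. GI50 marks 50% less growth.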 The source made the active and inactive calls. Rule as the data show it: active = GI50 up to about 1.1 µM and inactive = higher.

Legend:
Experiment in all cases: NCI-60 cell line screen, 48 h
NCI/ADR-RES = test system: NCI/ADR-RES
HT-29 = test system: HT-29
M14 = test system: M14
MOLT-4 = test system: MOLT-4
SF-539 = test system: SF-539
TK-10 = test system: TK-10
HL-60 = test system: HL-60
OVCAR-4 = test system: OVCAR-4
Hs-578T = test system: Hs-578T
CAKI-1 = test system: CAKI-1
MDA-N = test system: MDA-N
MDA-MB-435 = test system: MDA-MB-435
PC-3 = test system: PC-3
NCI-H226 = test system: NCI-H226
K562 = test system: K562
RPMI-8226 = test system: RPMI-8226
SK-MEL-5 = test system: SK-MEL-5
OVCAR-5 = test system: OVCAR-5
SNB-75 = test system: SNB-75
HCT-116 = test system: HCT-116
HOP-62 = test system: HOP-62
EKVX = test system: EKVX
MCF7 = test system: MCF7
LOX IMVI = test system: LOX IMVI
NCI-H23 = test system: NCI-H23
KM12 = test system: KM12
COLO 205 = test system: COLO 205
IGROV-1 = test system: IGROV-1
786-0 = test system: 786-0
SR = test system: SR
SF-268 = test system: SF-268
HCT-15 = test system: HCT-15
T47D = test system: T47D
NCI-H460 = test system: NCI-H460
ACHN = test system: ACHN
BT-549 = test system: BT-549
SN12C = test system: SN12C
UACC-257 = test system: UACC-257
SW-620 = test system: SW-620
NCI-H522 = test system: NCI-H522
MDA-MB-231 = test system: MDA-MB-231
A498 = test system: A498
SK-MEL-2 = test system: SK-MEL-2
OVCAR-3 = test system: OVCAR-3
U-251 = test system: U-251
SNB-19 = test system: SNB-19
A549 = test system: A549
UO-31 = test system: UO-31
OVCAR-8 = test system: OVCAR-8
SK-OV-3 = test system: SK-OV-3
UACC-62 = test system: UACC-62
SK-MEL-28 = test system: SK-MEL-28
DU-145 = test system: DU-145
CCRF-CEM = test system: CCRF-CEM
HCC 2998 = test system: HCC 2998
Malme-3M = test system: Malme-3M
SF-295 = test system: SF-295
RXF 393 = test system: RXF 393

## COc1cc([N+](=O)[O-])c(S(=O)(=O)O)cc1N
NCI/ADR-RES
  GI50: > 100 µM (inactive)
HT-29
  GI50: > 100 µM (inactive)
M14
  GI50: > 100 µM (inactive)
MOLT-4
  GI50: > 100 µM (inactive)
SF-539
  GI50: > 100 µM (inactive)
TK-10
  GI50: > 100 µM (inactive)
HL-60
  GI50: > 100 µM (inactive)
OVCAR-4
  GI50: > 100 µM (inactive)
Hs-578T
  GI50: > 100 µM (inactive)
CAKI-1
  GI50: > 100 µM (inactive)
MDA-N
  GI50: > 100 µM (inactive)
MDA-MB-435
  GI50: > 100 µM (inactive)
PC-3
  GI50: > 100 µM (inactive)
NCI-H226
  GI50: > 100 µM (inactive)
K562
  GI50: > 100 µM (inactive)
RPMI-8226
  GI50: > 100 µM (inactive)
SK-MEL-5
  GI50: > 100 µM (inactive)
OVCAR-5
  GI50: > 100 µM (inactive)
SNB-75
  GI50: > 100 µM (inactive)
HCT-116
  GI50: > 100 µM (inactive)
HOP-62
  GI50: > 100 µM (inactive)
EKVX
  GI50: > 100 µM (inactive)
MCF7
  GI50: > 100 µM (inactive)
LOX IMVI
  GI50: > 100 µM (inactive)
NCI-H23
  GI50: > 100 µM (inactive)
KM12
  GI50: > 100 µM (inactive)
COLO 205
  GI50: > 100 µM (inactive)
IGROV-1
  GI50: > 100 µM (inactive)
786-0
  GI50: > 100 µM (inactive)
SR
  GI50: > 100 µM (inactive)
SF-268
  GI50: > 100 µM (inactive)
HCT-15
  GI50: > 100 µM
T47D
  GI50: > 100 µM (inactive)
NCI-H460
  GI50: > 100 µM (inactive)
ACHN
  GI50: > 100 µM (inactive)
BT-549
  GI50: > 100 µM (inactive)
SN12C
  GI50: > 100 µM (inactive)
UACC-257
  GI50: > 100 µM (inactive)
SW-620
  GI50: > 100 µM (inactive)
NCI-H522
  GI50: > 100 µM (inactive)
MDA-MB-231
  GI50: > 100 µM (inactive)
A498
  GI50: > 100 µM (inactive)
SK-MEL-2
  GI50: > 100 µM (inactive)
OVCAR-3
  GI50: > 100 µM (inactive)
U-251
  GI50: > 100 µM (inactive)
SNB-19
  GI50: > 100 µM (inactive)
A549
  GI50: > 100 µM (inactive)
UO-31
  GI50: > 100 µM (inactive)
OVCAR-8
  GI50: > 100 µM (inactive)
SK-OV-3
  GI50: > 100 µM (inactive)
UACC-62
  GI50: > 100 µM (inactive)
SK-MEL-28
  GI50: > 100 µM (inactive)
DU-145
  GI50: > 100 µM (inactive)
CCRF-CEM
  GI50: > 100 µM (inactive)

## CN(C)CCCN1c2ccccc2CCc2ccc([N+](=O)[O-])cc21
HCC 2998
  GI50: 13.9 µM (inactive)
NCI/ADR-RES
  GI50: 19.1 µM (inactive)
HT-29
  GI50: 19.1 µM (inactive)
M14
  GI50: 15.4 µM (inactive)
MOLT-4
  GI50: 33.3 µM (inactive)
TK-10
  GI50: 18.7 µM (inactive)
HL-60
  GI50: 19.8 µM (inactive)
OVCAR-4
  GI50: 35.5 µM (inactive)
Hs-578T
  GI50: > 100 µM (inactive)
CAKI-1
  GI50: 40.6 µM (inactive)
MDA-N
  GI50: 18.5 µM (inactive)
MDA-MB-435
  GI50: 17.9 µM (inactive)
PC-3
  GI50: 34.8 µM (inactive)
NCI-H226
  GI50: 26.2 µM (inactive)
K562
  GI50: 30.3 µM (inactive)
RPMI-8226
  GI50: 34.5 µM (inactive)
SK-MEL-5
  GI50: 15.8 µM (inactive)
OVCAR-5
  GI50: 27.9 µM (inactive)
HCT-116
  GI50: 26.9 µM (inactive)
HOP-62
  GI50: 25.7 µM (inactive)
EKVX
  GI50: 69.3 µM (inactive)
MCF7
  GI50: 17.7 µM (inactive)
LOX IMVI
  GI50: 16.1 µM (inactive)
NCI-H23
  GI50: 27.2 µM (inactive)
KM12
  GI50: 18.1 µM (inactive)
COLO 205
  GI50: 13.6 µM (inactive)
IGROV-1
  GI50: 14.9 µM (inactive)
786-0
  GI50: 33 µM (inactive)
SR
  GI50: 25.9 µM (inactive)
SF-268
  GI50: 29.6 µM (inactive)
HCT-15
  GI50: 26.9 µM
T47D
  GI50: 16.5 µM (inactive)
NCI-H460
  GI50: 19.5 µM (inactive)
ACHN
  GI50: 34.6 µM (inactive)
BT-549
  GI50: 27.9 µM (inactive)
Malme-3M
  GI50: 19.5 µM (inactive)
SN12C
  GI50: 22.8 µM (inactive)
UACC-257
  GI50: 16.3 µM (inactive)
SW-620
  GI50: 38.5 µM (inactive)
NCI-H522
  GI50: 17.5 µM (inactive)
MDA-MB-231
  GI50: 39.2 µM (inactive)
A498
  GI50: 17.7 µM (inactive)
SK-MEL-2
  GI50: 20.3 µM (inactive)
OVCAR-3
  GI50: 34.5 µM (inactive)
U-251
  GI50: 29.3 µM (inactive)
SNB-19
  GI50: 45.1 µM (inactive)
SF-295
  GI50: 17.9 µM (inactive)
A549
  GI50: 34.6 µM (inactive)
UO-31
  GI50: 16 µM (inactive)
OVCAR-8
  GI50: 29.6 µM (inactive)
SK-OV-3
  GI50: 37.2 µM (inactive)
UACC-62
  GI50: 16.1 µM (inactive)
SK-MEL-28
  GI50: 25.5 µM (inactive)
DU-145
  GI50: 18.4 µM (inactive)
CCRF-CEM
  GI50: 39.2 µM (inactive)

## CC(C)(C)c1cc(S(=O)(=O)O)c2oc(-c3ccccc3)cc(=O)c2c1
HCC 2998
  GI50: > 100 µM (inactive)
NCI/ADR-RES
  GI50: > 100 µM (inactive)
HT-29
  GI50: > 100 µM (inactive)
MOLT-4
  GI50: > 100 µM (inactive)
SF-539
  GI50: > 100 µM (inactive)
TK-10
  GI50: > 100 µM (inactive)
HL-60
  GI50: > 100 µM (inactive)
Hs-578T
  GI50: > 100 µM (inactive)
CAKI-1
  GI50: > 100 µM (inactive)
MDA-N
  GI50: > 100 µM (inactive)
MDA-MB-435
  GI50: > 100 µM (inactive)
PC-3
  GI50: > 100 µM (inactive)
NCI-H226
  GI50: > 100 µM (inactive)
K562
  GI50: > 100 µM (inactive)
RPMI-8226
  GI50: > 100 µM (inactive)
SK-MEL-5
  GI50: > 100 µM (inactive)
SNB-75
  GI50: > 100 µM (inactive)
HCT-116
  GI50: > 100 µM (inactive)
HOP-62
  GI50: > 100 µM (inactive)
EKVX
  GI50: > 100 µM (inactive)
MCF7
  GI50: > 100 µM (inactive)
LOX IMVI
  GI50: > 100 µM (inactive)
NCI-H23
  GI50: > 100 µM (inactive)
KM12
  GI50: > 100 µM (inactive)
COLO 205
  GI50: > 100 µM (inactive)
IGROV-1
  GI50: > 100 µM (inactive)
786-0
  GI50: > 100 µM (inactive)
SR
  GI50: > 100 µM (inactive)
SF-268
  GI50: > 100 µM (inactive)
HCT-15
  GI50: > 100 µM
T47D
  GI50: 84.9 µM (inactive)
NCI-H460
  GI50: > 100 µM (inactive)
ACHN
  GI50: > 100 µM (inactive)
BT-549
  GI50: > 100 µM (inactive)
Malme-3M
  GI50: > 100 µM (inactive)
SN12C
  GI50: > 100 µM (inactive)
UACC-257
  GI50: > 100 µM (inactive)
SW-620
  GI50: > 100 µM (inactive)
NCI-H522
  GI50: > 100 µM (inactive)
MDA-MB-231
  GI50: > 100 µM (inactive)
OVCAR-3
  GI50: > 100 µM (inactive)
U-251
  GI50: > 100 µM (inactive)
SNB-19
  GI50: > 100 µM (inactive)
SF-295
  GI50: > 100 µM (inactive)
A549
  GI50: > 100 µM (inactive)
UO-31
  GI50: > 100 µM (inactive)
OVCAR-8
  GI50: > 100 µM (inactive)
RXF 393
  GI50: > 100 µM (inactive)
SK-MEL-28
  GI50: > 100 µM (inactive)
DU-145
  GI50: > 100 µM (inactive)
CCRF-CEM
  GI50: > 100 µM (inactive)
